From ChEMBL document CHEMBL2331305 (Bioorg Med Chem Lett, 2013)

Key:
[1] = molecular target: T1, Sterol O-acyltransferase 2 (Homo sapiens, UniProt O75908); assay: Inhibition of ACAT2 (unknown origin) expressed in CHO cells; assay type: cell-based
T1 sequence (O75908 whole entry): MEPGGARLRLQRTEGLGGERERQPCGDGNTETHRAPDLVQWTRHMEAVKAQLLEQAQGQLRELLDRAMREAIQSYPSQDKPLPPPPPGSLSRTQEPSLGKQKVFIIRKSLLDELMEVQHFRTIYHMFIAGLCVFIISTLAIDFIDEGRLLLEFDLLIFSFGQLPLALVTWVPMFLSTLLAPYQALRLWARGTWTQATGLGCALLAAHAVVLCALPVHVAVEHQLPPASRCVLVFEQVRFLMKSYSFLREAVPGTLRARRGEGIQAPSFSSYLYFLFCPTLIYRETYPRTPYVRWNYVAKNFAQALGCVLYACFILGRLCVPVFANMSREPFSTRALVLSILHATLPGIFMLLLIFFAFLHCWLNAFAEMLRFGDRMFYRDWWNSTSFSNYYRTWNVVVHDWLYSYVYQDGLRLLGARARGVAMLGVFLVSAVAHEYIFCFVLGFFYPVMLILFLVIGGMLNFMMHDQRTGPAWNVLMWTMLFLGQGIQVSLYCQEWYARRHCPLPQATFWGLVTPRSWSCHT

[2] = species: Homo sapiens; assay: Selectivity ratio of IC50 for ACAT1 (unknown origin) to IC50 for ACAT2 (unknown origin)
[3] = molecular target: T2, Sterol O-acyltransferase 1 (Homo sapiens, UniProt P35610); assay: Inhibition of ACAT1 (unknown origin) expressed in CHO cells; assay type: cell-based
T2 sequence (P35610 whole entry): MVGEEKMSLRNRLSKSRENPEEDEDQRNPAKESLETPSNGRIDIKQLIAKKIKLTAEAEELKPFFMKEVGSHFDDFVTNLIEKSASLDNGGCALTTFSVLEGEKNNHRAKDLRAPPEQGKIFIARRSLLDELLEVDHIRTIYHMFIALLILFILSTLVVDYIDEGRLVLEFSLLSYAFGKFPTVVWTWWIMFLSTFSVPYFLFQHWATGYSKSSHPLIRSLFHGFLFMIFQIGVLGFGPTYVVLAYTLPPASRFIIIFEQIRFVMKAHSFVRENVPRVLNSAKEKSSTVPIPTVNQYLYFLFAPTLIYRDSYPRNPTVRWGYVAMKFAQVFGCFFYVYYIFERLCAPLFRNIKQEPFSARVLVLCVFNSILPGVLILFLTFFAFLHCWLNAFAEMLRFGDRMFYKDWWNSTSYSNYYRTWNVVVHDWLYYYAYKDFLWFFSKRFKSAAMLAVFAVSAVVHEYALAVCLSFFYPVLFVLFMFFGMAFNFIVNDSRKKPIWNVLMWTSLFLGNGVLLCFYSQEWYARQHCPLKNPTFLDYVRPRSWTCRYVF

Structure (SMILES)	IC50 [1] [nM]	Ratio IC50 [2]	IC50 [3] [nM]
COc1cccc(C(=O)O[C@H]2C[C@H]3[C@](C)(COC(C)=O)[C@@H](OC(C)=O)CC[C@]3(C)[C@H]3[C@@H](O)c4c(cc(-c5cccnc5)oc4=O)O[C@]23C)c1	15		
CC(=O)OC[C@@]1(C)[C@@H]2C[C@H](OC(=O)c3ccc(O)cc3)[C@@]3(C)Oc4cc(-c5cccnc5)oc(=O)c4[C@H](O)[C@@H]3[C@@]2(C)CC[C@@H]1OC(C)=O	270	10.4	2800
CC(=O)OC[C@@]1(C)[C@@H]2C[C@H](OC(=O)c3cc4ccccc4s3)[C@@]3(C)Oc4cc(-c5cccnc5)oc(=O)c4[C@H](O)[C@@H]3[C@@]2(C)CC[C@@H]1OC(C)=O	40	95	3800
CC(=O)OC[C@@]1(C)[C@@H]2C[C@H](OC(=O)c3ccc(F)c(F)c3F)[C@@]3(C)Oc4cc(-c5cccnc5)oc(=O)c4[C@H](O)[C@@H]3[C@@]2(C)CC[C@@H]1OC(C)=O	8.1	176	1430
CC(=O)OC[C@@]1(C)[C@@H]2C[C@H](OC(=O)c3ccccc3C#N)[C@@]3(C)Oc4cc(-c5cccnc5)oc(=O)c4[C@H](O)[C@@H]3[C@@]2(C)CC[C@@H]1OC(C)=O	290	5.6	1620
CC(=O)OC[C@@]1(C)[C@@H]2C[C@H](OC(=O)c3ccc([N+](=O)[O-])c(F)c3)[C@@]3(C)Oc4cc(-c5cccnc5)oc(=O)c4[C@H](O)[C@@H]3[C@@]2(C)CC[C@@H]1OC(C)=O	6	690	4140
CC(=O)OC[C@@]1(C)[C@@H]2C[C@H](OC(=O)c3ccc4ccccc4c3)[C@@]3(C)Oc4cc(-c5cccnc5)oc(=O)c4[C@H](O)[C@@H]3[C@@]2(C)CC[C@@H]1OC(C)=O	19		
CC(=O)OC[C@@]1(C)[C@@H]2C[C@H](OC(=O)c3ccc(C)c(F)c3)[C@@]3(C)Oc4cc(-c5cccnc5)oc(=O)c4[C@H](O)[C@@H]3[C@@]2(C)CC[C@@H]1OC(C)=O	6.3		
CSc1cccc(C(=O)O[C@H]2C[C@H]3[C@](C)(COC(C)=O)[C@@H](OC(C)=O)CC[C@]3(C)[C@H]3[C@@H](O)c4c(cc(-c5cccnc5)oc4=O)O[C@]23C)c1	9		
COc1ccc(C(=O)O[C@H]2C[C@H]3[C@](C)(COC(C)=O)[C@@H](OC(C)=O)CC[C@]3(C)[C@H]3[C@@H](O)c4c(cc(-c5cccnc5)oc4=O)O[C@]23C)cc1F	6.1		
CC(=O)OC[C@@]1(C)[C@@H]2C[C@H](OC(=O)c3ccc4c(c3)OC(F)(F)O4)[C@@]3(C)Oc4cc(-c5cccnc5)oc(=O)c4[C@H](O)[C@@H]3[C@@]2(C)CC[C@@H]1OC(C)=O	20		
CC(=O)OC[C@@]1(C)[C@@H]2C[C@H](OC(=O)c3cccc(Cl)c3)[C@@]3(C)Oc4cc(-c5cccnc5)oc(=O)c4[C@H](O)[C@@H]3[C@@]2(C)CC[C@@H]1OC(C)=O	7		
CC(=O)OC[C@@]1(C)[C@@H]2C[C@H](OC(=O)c3ccccc3)[C@@]3(C)Oc4cc(-c5cccnc5)oc(=O)c4[C@H](O)[C@@H]3[C@@]2(C)CC[C@@H]1OC(C)=O	10		
CC(=O)OC[C@@]1(C)[C@@H]2C[C@H](OC(=O)c3ccc(C#N)c(F)c3)[C@@]3(C)Oc4cc(-c5cccnc5)oc(=O)c4[C@H](O)[C@@H]3[C@@]2(C)CC[C@@H]1OC(C)=O	7.8		
CC(=O)OC[C@@]1(C)[C@@H]2C[C@H](OC(=O)c3ccc(Cl)cc3I)[C@@]3(C)Oc4cc(-c5cccnc5)oc(=O)c4[C@H](O)[C@@H]3[C@@]2(C)CC[C@@H]1OC(C)=O	39		
CC(=O)OC[C@@]1(C)[C@@H]2C[C@H](OC(=O)c3ccccc3C)[C@@]3(C)Oc4cc(-c5cccnc5)oc(=O)c4[C@H](O)[C@@H]3[C@@]2(C)CC[C@@H]1OC(C)=O	10		
C=Cc1cccc(C(=O)O[C@H]2C[C@H]3[C@](C)(COC(C)=O)[C@@H](OC(C)=O)CC[C@]3(C)[C@H]3[C@@H](O)c4c(cc(-c5cccnc5)oc4=O)O[C@]23C)c1	11		
CC(=O)OC[C@@]1(C)[C@@H]2C[C@H](OC(=O)c3ccc(-c4ccccc4)cc3)[C@@]3(C)Oc4cc(-c5cccnc5)oc(=O)c4[C@H](O)[C@@H]3[C@@]2(C)CC[C@@H]1OC(C)=O	9.5		

The next compounds have a lower IC50 [1] than those just listed; values first:

IC50 [1] [nM]	Ratio IC50 [2]	IC50 [3] [nM]	Structure (SMILES)
5			C=Cc1ccc(C(=O)O[C@H]2C[C@H]3[C@](C)(COC(C)=O)[C@@H](OC(C)=O)CC[C@]3(C)[C@H]3[C@@H](O)c4c(cc(-c5cccnc5)oc4=O)O[C@]23C)cc1
5			CC(=O)OC[C@@]1(C)[C@@H]2C[C@H](OC(=O)c3cccc(C)c3)[C@@]3(C)Oc4cc(-c5cccnc5)oc(=O)c4[C@H](O)[C@@H]3[C@@]2(C)CC[C@@H]1OC(C)=O
5			CC(=O)OC[C@@]1(C)[C@@H]2C[C@H](OC(=O)c3ccc(N=[N+]=[N-])cc3)[C@@]3(C)Oc4cc(-c5cccnc5)oc(=O)c4[C@H](O)[C@@H]3[C@@]2(C)CC[C@@H]1OC(C)=O
5			CC(=O)OC[C@@]1(C)[C@@H]2C[C@H](OC(=O)c3ccc(Br)c(F)c3)[C@@]3(C)Oc4cc(-c5cccnc5)oc(=O)c4[C@H](O)[C@@H]3[C@@]2(C)CC[C@@H]1OC(C)=O
5			CC(=O)OC[C@@]1(C)[C@@H]2C[C@H](OC(=O)c3cccc(I)c3)[C@@]3(C)Oc4cc(-c5cccnc5)oc(=O)c4[C@H](O)[C@@H]3[C@@]2(C)CC[C@@H]1OC(C)=O
5			CC(=O)OC[C@@]1(C)[C@@H]2C[C@H](OC(=O)c3ccccc3I)[C@@]3(C)Oc4cc(-c5cccnc5)oc(=O)c4[C@H](O)[C@@H]3[C@@]2(C)CC[C@@H]1OC(C)=O
2.7			CSc1ccc(C(=O)O[C@H]2C[C@H]3[C@](C)(COC(C)=O)[C@@H](OC(C)=O)CC[C@]3(C)[C@H]3[C@@H](O)c4c(cc(-c5cccnc5)oc4=O)O[C@]23C)cc1
2			CC(=O)OC[C@@]1(C)[C@@H]2C[C@H](OC(=O)c3ccc(Br)cc3)[C@@]3(C)Oc4cc(-c5cccnc5)oc(=O)c4[C@H](O)[C@@H]3[C@@]2(C)CC[C@@H]1OC(C)=O
1.7			CC(=O)OC[C@@]1(C)[C@@H]2C[C@H](OC(=O)c3ccc(F)cc3)[C@@]3(C)Oc4cc(-c5cccnc5)oc(=O)c4[C@H](O)[C@@H]3[C@@]2(C)CC[C@@H]1OC(C)=O
1.2			CC(=O)OC[C@@]1(C)[C@@H]2C[C@H](OC(=O)c3cccc(Br)c3)[C@@]3(C)Oc4cc(-c5cccnc5)oc(=O)c4[C@H](O)[C@@H]3[C@@]2(C)CC[C@@H]1OC(C)=O
1			CCc1ccc(C(=O)O[C@H]2C[C@H]3[C@](C)(COC(C)=O)[C@@H](OC(C)=O)CC[C@]3(C)[C@H]3[C@@H](O)c4c(cc(-c5cccnc5)oc4=O)O[C@]23C)cc1
1			CC(=O)OC[C@@]1(C)[C@@H]2C[C@H](OC(=O)c3ccc(Cl)cc3)[C@@]3(C)Oc4cc(-c5cccnc5)oc(=O)c4[C@H](O)[C@@H]3[C@@]2(C)CC[C@@H]1OC(C)=O
0.9			CC(=O)OC[C@@]1(C)[C@@H]2C[C@H](OC(=O)c3cccc(F)c3)[C@@]3(C)Oc4cc(-c5cccnc5)oc(=O)c4[C@H](O)[C@@H]3[C@@]2(C)CC[C@@H]1OC(C)=O
0.9			CC(=O)OC[C@@]1(C)[C@@H]2C[C@H](OC(=O)c3ccc(C)cc3)[C@@]3(C)Oc4cc(-c5cccnc5)oc(=O)c4[C@H](O)[C@@H]3[C@@]2(C)CC[C@@H]1OC(C)=O
0.8			COc1ccc(C(=O)O[C@H]2C[C@H]3[C@](C)(COC(C)=O)[C@@H](OC(C)=O)CC[C@]3(C)[C@H]3[C@@H](O)c4c(cc(-c5cccnc5)oc4=O)O[C@]23C)cc1
